Here are results for five molecules from ChEMBL document CHEMBL1124303, “Conformational requirements of substrates for activity with phenylethanolamine N-methyltransferase” (J Med Chem, 1988).

pKi: −log10 of the molar value.

One may read the Km as the concentration of substrate that gives half-maximal velocity. As usually defined, the Vmax is the top rate of the reaction or transport when substrate is in excess. One may read the pKi as the Ki on a negative log10 scale, so that one unit is a factor of ten. A high value points to a low Ki.

The nature of data set [1]: Km value was measured. The data set is classed as ADME.
Data set [2] can be described thus: Vmax value was measured. The data set is classed as ADME.
Data set [3] in a line: Ratio of Vmax to Km of compound was determined. The data set is classed as ADME.
In data set [4] the target is T1, Phenylethanolamine N-methyltransferase (Bos taurus, UniProt P10938).
T1 sequence (P10938 whole entry): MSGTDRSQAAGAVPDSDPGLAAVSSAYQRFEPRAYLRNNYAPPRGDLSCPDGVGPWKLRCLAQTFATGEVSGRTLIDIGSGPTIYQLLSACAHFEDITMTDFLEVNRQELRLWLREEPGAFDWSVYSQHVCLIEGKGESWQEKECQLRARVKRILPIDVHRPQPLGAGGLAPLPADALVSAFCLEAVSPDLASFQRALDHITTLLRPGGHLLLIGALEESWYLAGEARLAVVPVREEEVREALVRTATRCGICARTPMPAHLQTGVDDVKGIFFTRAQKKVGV
The data set can be described thus: Binding affinity to phenylethanolamine N-methyltransferase(PNMT) in bovine.

Consider `N[C@H]1CCc2ccccc2[C@H]1O`, for which, in data set [1], the Km amounted to 22 µM. Further, the maximum rate (Vmax) in data set [2] amounted to 0.15 nmol/min/mg. Besides, the Ratio in data set [3] was 68.

On to `OC1CNCc2ccccc21` (stereo not drawn), for which the pKi in data set [4] was 3.75.

In data set [4], `N[C@H]1CCc2ccccc2[C@@H]1O` showed a negative logarithm of the Ki (pKi) of 5.03. Regarding `NC[C@@H](O)c1ccccc1`, the Km in data set [1] amounted to 70 µM. Further, the Vmax in data set [2] turned out to be 2.2 nmol/min/mg. Molecule `c1ccc2c(c1)CCNC2` [1,2,3,4-TETRAHYDROISOQUINOLINE] had a negative logarithm of the Ki (pKi) in data set [4] of 5.00.
